Laboratory results reported in article PMC5471521, “Novel selective β1-adrenoceptor antagonists for concomitant cardiovascular and respiratory disease” (The FASEB Journal, 2017).
Read-outs that look alike come from different tables or passages of the source.

Key:
[1] = Metabolic stability, rat hepatocytes; type: in vitro ADME
Method: NDD-713.HCl and -825.HCl were incubated (0.02, 0.1, or 0.5 μM at 37°C, 120 min) with human (XenoTech, Kansas City, KS, USA) or rat liver microsomes (BD Biosciences, Brea, CA, USA) at 0.4 mg/ml protein concentration. Metabolic reaction was initiated by addition of NADPH-regenerating system or NADPH-regenerating system with uridine diphosphate glucuronic acid. Samples were quenched at time points by acetonitrile addition. Control samples, which contained neither NADPH, nor uridine diphosphate glucuronic acid, were monitored for degradation. Compound concentrations were determined by ultraperformance LC-MS (UPLC-MS) relative to calibration standards that were prepared in quenched liver microsomes and fitted to exponential decay functions to determine first-order rate constants (k) for substrate depletion. These were used to calculate in vitro intrinsic clearance (CLint) values: CLint = k/microsomal protein content (0.4 mg protein/ml). Metabolic stability assays that used rat liver cytosol (BD Biosciences), human cryopreserved hepatocytes, or rat hepatocytes were carried out similarly. Average viable cell concentrations were determined by Trypan Blue exclusion methods (in the absence of test compounds). Studies were carried out by CDCO.

[2] = molecular target: T1, native β2-AR in human bronchial smooth muscle cells (Homo sapiens, UniProt P07550); assay: Antagonism of cimaterol-induced 3H-cAMP accumulation in human bronchial smooth muscle cells; type: cell-based; details: cimaterol agonist, mean ± SEM
T1 construct: human bronchial smooth muscle cells (that natively express β2-AR); host or cells: human bronchial smooth muscle cells
T1 sequence (P07550 whole entry): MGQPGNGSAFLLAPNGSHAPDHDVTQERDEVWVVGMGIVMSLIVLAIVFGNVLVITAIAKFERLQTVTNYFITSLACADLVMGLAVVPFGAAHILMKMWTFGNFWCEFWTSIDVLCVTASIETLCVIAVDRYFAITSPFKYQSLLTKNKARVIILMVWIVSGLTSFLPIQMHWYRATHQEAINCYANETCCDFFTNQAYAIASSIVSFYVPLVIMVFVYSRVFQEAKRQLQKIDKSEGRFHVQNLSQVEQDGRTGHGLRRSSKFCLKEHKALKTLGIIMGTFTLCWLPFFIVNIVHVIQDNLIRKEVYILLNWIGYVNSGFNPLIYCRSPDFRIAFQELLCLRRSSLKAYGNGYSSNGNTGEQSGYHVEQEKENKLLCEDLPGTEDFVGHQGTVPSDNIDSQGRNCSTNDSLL
Method: Human bronchial smooth muscle cells were obtained from Lonza (Basel, Switzerland) and grown in manufacturer media. Rat β-AR binding experiments (DNA from cDNA Resource Centre, Bloomsburg, PA, USA) were conducted by using transiently transfected CHO cells ([44]). […] Antagonist Kd values were calculated from a rightward shift of the agonist concentration response curve by using the Gaddum equation as previously described ([46]).

hERG potassium channel = hERG potassium channel (Homo sapiens, UniProt Q12809); assay: hERG 3H-astemizole radioligand binding; details: 10 µM; concentrations >3000-fold β1-AR affinity
hERG potassium channel, sequence (Q12809 whole entry): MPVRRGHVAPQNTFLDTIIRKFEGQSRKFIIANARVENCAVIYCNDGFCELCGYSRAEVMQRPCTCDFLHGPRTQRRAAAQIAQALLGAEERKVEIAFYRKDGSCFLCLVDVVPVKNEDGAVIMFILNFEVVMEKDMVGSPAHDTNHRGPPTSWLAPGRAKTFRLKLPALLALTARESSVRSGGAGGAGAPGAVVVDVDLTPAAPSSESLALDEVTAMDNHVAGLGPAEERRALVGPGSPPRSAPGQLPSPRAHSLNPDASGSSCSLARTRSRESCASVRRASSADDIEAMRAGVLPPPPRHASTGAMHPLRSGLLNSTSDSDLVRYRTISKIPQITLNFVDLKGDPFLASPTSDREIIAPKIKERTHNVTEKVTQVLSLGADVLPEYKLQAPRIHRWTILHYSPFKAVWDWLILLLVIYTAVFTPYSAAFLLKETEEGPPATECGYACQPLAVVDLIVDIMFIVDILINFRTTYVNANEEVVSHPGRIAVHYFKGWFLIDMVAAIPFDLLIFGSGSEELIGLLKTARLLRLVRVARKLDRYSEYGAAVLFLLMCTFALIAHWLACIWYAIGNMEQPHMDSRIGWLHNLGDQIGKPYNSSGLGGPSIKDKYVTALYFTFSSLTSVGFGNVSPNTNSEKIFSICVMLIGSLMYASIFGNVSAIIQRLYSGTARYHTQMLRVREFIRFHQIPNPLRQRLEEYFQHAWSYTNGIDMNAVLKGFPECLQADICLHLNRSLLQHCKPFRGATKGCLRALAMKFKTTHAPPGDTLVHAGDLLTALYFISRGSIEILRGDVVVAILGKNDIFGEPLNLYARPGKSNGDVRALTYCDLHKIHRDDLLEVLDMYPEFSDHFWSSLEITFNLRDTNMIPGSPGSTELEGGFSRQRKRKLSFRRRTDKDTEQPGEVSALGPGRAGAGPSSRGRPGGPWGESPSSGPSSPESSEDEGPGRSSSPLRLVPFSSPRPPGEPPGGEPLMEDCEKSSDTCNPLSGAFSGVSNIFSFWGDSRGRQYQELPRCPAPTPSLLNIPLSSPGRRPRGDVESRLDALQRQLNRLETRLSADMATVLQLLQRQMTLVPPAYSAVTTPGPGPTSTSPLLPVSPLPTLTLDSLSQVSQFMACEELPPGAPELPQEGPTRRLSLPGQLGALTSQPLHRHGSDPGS

[3] = PK analysis in male Sprague-Dawley rats; type: in vivo; details: rat; for AUC(0-t) / half-life / clearance / Vd / Cmax / Tmax / bioavailability: male, Sprague-Dawley; for AUC(0-t) / half-life / clearance / Vd / Cmax / Tmax / AUC0-t/dose: hydrochloride salt forms; for half-life: read-out: t1/2, app (converted); for Vd: read-out: Vss; for Unbound plasma level at Cmax below β2-AR Kd / Likely duration of β1-AR blockade: 20 mg/kg p.o.; for Likely duration of β1-AR blockade: judged from PK profile vs Kd
Method: Blood samples were centrifuged, supernatant plasma was removed, and plasma concentrations of compounds were determined by LC-MS. […] Studies were carried out by CDCO.

[4] = Protein binding by ultracentrifugation, human liver microsomes; type: in vitro ADME; details: pH 7.4, 0.4 mg/ml protein, read-out: fu human liver microsomes
Method: Protein binding of 1 µM NDD-713.HCl and -825.HCl in human and rat plasma, as well as human liver microsomes, was assessed by using the ultracentrifugation technique. Frozen human plasma (Australian Red Cross Blood Service, Melbourne, VIC, Australia) and rat plasma (male Sprague-Dawley rats; Charles River, Margate, Kent, United Kingdom) were thawed at 37°C. Human liver microsomes (XenoTech) were suspended in 0.1 M phosphate buffer (pH 7.4) at protein concentrations of 0.4 mg/ml. Samples were collected immediately as stability reference controls. Spiked plasma samples (but not microsome samples) were incubated at 37°C for 1 h. […] NDD-713.HCl and -825.HCl concentrations of noncentrifuged matrix and protein-free supernatant were determined by UPLC-MS relative to calibration standards prepared in the respective matrices. Total concentration (Ctotal) was the average measured concentration in […] samples maintained at 37°C, and unbound concentration (Cunbound) was the average measured concentration in protein-free supernatants from centrifuged samples (n = 3). The compound unbound fraction (fu) was calculated: fu = Cunbound/Ctotal. Compound degradation was assessed by comparing concentrations in noncentrifuged plasma samples that were incubated at 37°C with concentrations measured in the t = 0 noncentrifuged samples. […]

[5] = Aqueous solubility by nephelometry; type: physicochemical; details: kinetic from dmso stock
Method: NDD-713.HCl and -825.HCl were added to either aqueous phosphate buffer (pH 6.5) or 0.01 M aqueous HCl (pH ∼2) at final DMSO concentrations of 1%. Samples were analyzed by nephelometry to determine solubility ranges ([48]). Studies were carried out by the Centre for Drug Candidate Optimisation (CDCO; Monash University, Melbourne, VIC, Australia).

[6] = plasma, iv, i.v. 2 mg/kg, mean ± SD n = 3
[7] = plasma, iv, i.v. 2 mg/kg, read-out: Plasma CLtotal
[8] = plasma, iv, i.v. 6 mg/kg, mean ± SD n = 3
[9] = plasma, iv, i.v. 6 mg/kg, read-out: Plasma CLtotal
[10] = plasma, iv, i.v. 20 mg/kg, mean ± SD n = 3
[11] = plasma, iv, i.v. 20 mg/kg, read-out: Plasma CLtotal
[12] = whole blood, iv, i.v. 2 mg/kg, read-out: Blood CLtotal
[13] = whole blood, iv, i.v. 6 mg/kg, read-out: Blood CLtotal
[14] = whole blood, iv, i.v. 20 mg/kg, read-out: Blood CLtotal
[15] = 0.01 M aqueous HCl, simulated gastric fluid, pH 2.0, hydrochloride salts used, read-out: Aqueous solubility Saq at pH 2.0
[16] = aqueous phosphate buffer, aqueous buffer, pH 6.5, hydrochloride salts used, read-out: Aqueous solubility Saq at pH 6.5

O=C1NCc2cc(OCCNC[C@H](O)COc3ccc4c(c3)OC[C@@H](COCC3CC3)O4)ccc21 [NDD-825]
hepatocyte CLint ([1]; hepatocytes): 5 µL/min/1e6 cells | Kd [2]: 1350 nM | Affinity for the hERG channel (hERG potassium channel): no affinity for the hERG channel | AUC(0-t) ([3]; plasma, iv, i.v. 2 mg/kg): 1.4 µM·h | half-life [3, 6]: 5.3 ± 0.3 h | clearance [3, 7]: 54 ± 2 mL/min/kg | Vd ([3]; plasma, iv, i.v. 2 mg/kg): 6 ± 0.5 L/kg | AUC(0-t) ([3]; plasma, iv, i.v. 6 mg/kg): 3.8 ± 0.2 µM·h | half-life [3, 8]: 7.3 ± 0.1 h | clearance [3, 9]: 59 ± 1 mL/min/kg | Vd ([3]; plasma, iv, i.v. 6 mg/kg): 5 L/kg | AUC(0-t) ([3]; plasma, iv, i.v. 20 mg/kg): 12.1 ± 0.3 µM·h | half-life [3, 10]: 7.1 ± 1.3 h | clearance [3, 11]: 55 ± 1 mL/min/kg | Vd ([3]; plasma, iv, i.v. 20 mg/kg): 4.7 L/kg | AUC(0-t) ([3]; plasma, po, p.o. 2 mg/kg): 0.4 ± 0.1 µM·h | Cmax ([3]; plasma, po, p.o. 2 mg/kg): 100 nM | Tmax ([3]; plasma, po, p.o. 2 mg/kg): 1.38 h | half-life ([3]; plasma, po, p.o. 2 mg/kg): 9.8 ± 0.2 h | AUC(0-t) ([3]; plasma, po, p.o. 10 mg/kg): 3 ± 0.4 µM·h | Cmax ([3]; plasma, po, p.o. 10 mg/kg): 800 ± 100 nM | Tmax ([3]; plasma, po, p.o. 10 mg/kg): 0.75 h | half-life ([3]; plasma, po, p.o. 10 mg/kg): 4.6 ± 0.1 h | AUC(0-t) ([3]; plasma, po, p.o. 20 mg/kg): 11.9 ± 3 µM·h | Cmax ([3]; plasma, po, p.o. 20 mg/kg): 1400 ± 300 nM | Tmax ([3]; plasma, po, p.o. 20 mg/kg): 3.1 h | half-life ([3]; plasma, po, p.o. 20 mg/kg): 3.3 ± 0.2 h | bioavailability ([3]; plasma, po, 2 mg/kg): 32 ± 5% | bioavailability ([3]; plasma, po, 10 mg/kg): 45 ± 6% | bioavailability ([3]; plasma, po, 20 mg/kg): 89 ± 24% | clearance [3, 12]: 39 ± 1 mL/min/kg | clearance [3, 13]: 42 ± 1 mL/min/kg | clearance [3, 14]: 39 ± 1 mL/min/kg | Unbound plasma level at Cmax below β2-AR Kd [3]: at least 5 fold | Likely duration of β1-AR blockade [3]: > 24 h | AUC0-t/dose ([3]; i.v. 2 mg/kg): 0.6 ± 0 μM ⋅ h/(mg/kg) | AUC0-t/dose ([3]; i.v. 6 mg/kg): 0.6 ± 0 μM ⋅ h/(mg/kg) | AUC0-t/dose ([3]; i.v. 20 mg/kg): 0.6 ± 0 μM ⋅ h/(mg/kg) | AUC0-t/dose ([3]; p.o. 2 mg/kg): 0.2 ± 0 μM ⋅ h/(mg/kg) | AUC0-t/dose ([3]; p.o. 10 mg/kg): 0.3 ± 0.1 μM ⋅ h/(mg/kg) | AUC0-t/dose ([3]; p.o. 20 mg/kg): 0.5 ± 0.2 μM ⋅ h/(mg/kg) | fraction unbound at 4.2 h, 1 µM [4]: 0.63 | solubility [5, 15]: > 100 µg/mL | solubility [5, 16]: 50 to 100 µg/mL

NC(=O)c1ccc(OCCNC[C@H](O)COc2ccc3c(c2)OC[C@@H](COCC2CC2)O3)cc1 [NDD-713]
CLint rat hepatocytes [1]: minimal | Kd [2]: 3390 nM | Affinity for the hERG channel (hERG potassium channel): no affinity for the hERG channel | AUC(0-t) ([3]; plasma, iv, i.v. 2 mg/kg): 1.2 ± 0.1 µM·h | half-life [3, 6]: 1.7 ± 0.2 h | clearance [3, 7]: 62 ± 4 mL/min/kg | Vd ([3]; plasma, iv, i.v. 2 mg/kg): 4.3 ± 0.4 L/kg | AUC(0-t) ([3]; plasma, iv, i.v. 6 mg/kg): 4.6 ± 0.3 µM·h | half-life [3, 8]: 1.6 ± 0.1 h | clearance [3, 9]: 43 ± 1 mL/min/kg | Vd ([3]; plasma, iv, i.v. 6 mg/kg): 3.6 ± 0.2 L/kg | AUC(0-t) ([3]; plasma, iv, i.v. 20 mg/kg): 14.7 ± 1 µM·h | half-life [3, 10]: 2 h | clearance [3, 11]: 51 ± 2 mL/min/kg | Vd ([3]; plasma, iv, i.v. 20 mg/kg): 4.2 ± 0.2 L/kg | AUC(0-t) ([3]; plasma, po, p.o. 2 mg/kg): 0.6 ± 0.2 µM·h | Cmax ([3]; plasma, po, p.o. 2 mg/kg): 200 ± 100 nM | Tmax ([3]; plasma, po, p.o. 2 mg/kg): 0.5 h | AUC(0-t) ([3]; plasma, po, p.o. 10 mg/kg): 5.1 ± 0.2 µM·h | Cmax ([3]; plasma, po, p.o. 10 mg/kg): 2100 ± 600 nM | Tmax ([3]; plasma, po, p.o. 10 mg/kg): 0.75 h | half-life ([3]; plasma, po, p.o. 10 mg/kg): 1.5 h | AUC(0-t) ([3]; plasma, po, p.o. 20 mg/kg): 6.3 ± 0.3 µM·h | Cmax ([3]; plasma, po, p.o. 20 mg/kg): 2000 ± 100 nM | Tmax ([3]; plasma, po, p.o. 20 mg/kg): 0.75 h | half-life ([3]; plasma, po, p.o. 20 mg/kg): 2.1 h | bioavailability ([3]; plasma, po, 2 mg/kg): 50 ± 11% | bioavailability ([3]; plasma, po, 10 mg/kg): 77 ± 3% | bioavailability ([3]; plasma, po, 20 mg/kg): 44 ± 1% | clearance [3, 12]: 51 ± 3 mL/min/kg | clearance [3, 13]: 36 ± 1 mL/min/kg | clearance [3, 14]: 42 ± 1 mL/min/kg | Unbound plasma level at Cmax below β2-AR Kd [3]: at least 5 fold | Likely duration of β1-AR blockade [3]: 10 h | AUC0-t/dose ([3]; i.v. 2 mg/kg): 0.6 ± 0.1 μM ⋅ h/(mg/kg) | AUC0-t/dose ([3]; i.v. 6 mg/kg): 0.8 ± 0 μM ⋅ h/(mg/kg) | AUC0-t/dose ([3]; i.v. 20 mg/kg): 0.7 ± 0 μM ⋅ h/(mg/kg) | AUC0-t/dose ([3]; p.o. 2 mg/kg): 0.4 ± 0.1 μM ⋅ h/(mg/kg) | AUC0-t/dose ([3]; p.o. 10 mg/kg): 0.5 ± 0.1 μM ⋅ h/(mg/kg) | AUC0-t/dose ([3]; p.o. 20 mg/kg): 0.3 ± 0 μM ⋅ h/(mg/kg) | fraction unbound at 4.2 h, 1 µM [4]: 0.67 | solubility [5, 15]: > 100 µg/mL | solubility [5, 16]: 25 to 50 µg/mL
